Consider five compounds from patent publication US5986131A, “RXR selective ligands” (Hoffmann-La Roche Inc., priority 1997, dated 1999).

Assay [1] concerns nuclear retinoic acid receptors ("RAR"). To be noted: cited from earlier work.
In a further assay the test system is Rhino mouse utricles. Kind of assay: Rhino mouse utricle reduction activity. The assay is classed as in vivo, Rhino mice. To be noted: topical; for Utricle Size: 3 weeks; for Utricle size % Change from Control: ns = not statistically significant, others p<0.05. How it is done:
Compounds were dissolved in 100% acetone and stored at 4° C. for the duration of the experiment under nitrogen. […] One day after the last dose, the mice were sacrificed by CO2 inhalation. […] The epidermis was then separated from the dermis.
The samples were kept in each of the above solutions for 2 hours. The skin samples were removed from the xylene and mounted on glass microscope slides. Image analysis, using the Ultimage image analysis software, was used to determine the mean diameter and area of utricles. Approximately 5 fields per sample were examined, for an average of 150 utricles per mouse measured.

The test system of assay [2] is retinoic acid X receptors ("RXR"). To be noted: cited from earlier work.
A further assay deals with human sebaceous cells. Kind of assay: Antiproliferative activity on human sebocytes in vitro. The assay is classed as cell-based. To be noted: Homo sapiens; for IC50: 240 h, first passage cells, 10 days of exposure, read-out: Inhibition of human sebaceous cell proliferation in vitro IC50. How it is done:
Sebaceous cells were isolated from adult human sebaceous glands by a combination of enzymatic and mechanical methods (Doran et al., 1991). The cells were cultured in Iscove's medium containing 10% fetal calf serum and 4 μg/ml dexamethasone on a layer of growth-arrested 3T3 mouse fibroblasts. Cells were plated in medium without the test compound and then given test compound in fresh medium 24-48 hours after the initial plating. The cultures were given fresh medium, containing the test compound, every 48 hours. On the day of harvesting, the cultures were rinsed with 0.03% EDTA in PBS, to remove only the 3T3 fibroblasts. followed by incubation in 0.05% trypsin/0.03% EDTA. The cells were suspended, mixed vigorously to prepare a single cell suspension and counted in a hemocytometer.
Stock solutions of compounds were made up as 10^-2 M solutions in 100% DMSO and stored at -20° C. in the dark. Compounds in solution were brought to room temperature and used by diluting directly into complete medium to the appropriate concentration.
The compounds of Example 12, Example 2, and Example 4 were tested for their effects on inhibiting the proliferation of first passage human sebaceous cells in vitro after 10 days of exposure to drug.

For another assay, the system named is mouse B cell. Kind of assay: Inhibition of LPS-induced mouse B cell proliferation (3H-thymidine incorporation). Type of assay: cell-based. How it is done:
Single cell suspensions of mouse spleen were set up in culture in flatbottomed 96 well Microtiter trays, 0.2 ml/well of a 2×10^5 /ml cell suspension in IMDM supplemented with 10% foetal calf serum, HEPES, antibiotics and 50 μM 2-mercaptoethanol. The specific B cell mitogen E. coli lipopolysaccharide (DIFCO) (LPS) was added at 50μg/ml. Cultures were incubated at 37° C. in a humidified atmosphere and 5% CO2.
The retinoids to be tested were first titrated in triplicate from 10 nM to 10 μM and left throughout the whole culture period. […] Cyclosporin A (Sandoz AG) was used as a reference compound (from 1 nM to 1 μM).
The cultures were then harvested on glass fiber filters and the radioactivity imcorporated into DNA measured in a β-liquid scintillation counter (Betaplate, Wallac Oy, Turku, Finland).
The results are expressed as % of the response of untreated cultures. […] Retinoids were added to the cultures at the beginning of the culture period.

In another assay the test system is HL-60 cells. The experiment in a line: HL-60 differentiation (NBT reduction). Type of assay: cell-based, human. The conditions noted are these: in combination with RARα retinoid. How it is done:
Under the influence of retinoids, HL-60 cells (a human myeloid leukemia cell line) differentiate into granulocytes. This differentiation of HL-60 cells into granulocytes is mediated by RARα, and so provides the basis for the use of retinoids to treat leukemia.
Retinoid-induced differentiation of HL-60 cells was assayed by measuring their oxidative burst potential via the reduction of NBT (Nitroblueterstazolium) [Pick et al., J. Reticuloendothelial Soc., 30:581-593 (1981)].
HL-60 cells were maintained in RPMI 1640 medium supplemented with 10% FCS, 2mM L-glutamine, ImM sodium pyruvate, 1% non-essential amino acids, 50 U/ml penicillin and 50 μg/ml streptomycin (=RPMI/FCS).
30,000 cells/[…] of RPMI/FCS were seeded into flat-bottomed microtiter wells. 10 μl of retinoids diluted in complete medium were added at the same time to yield final concentrations betweeen 10^-11 and 10^-6 M (stock solutions of 10^-2 M in ethanol were kep at -20° C. and protected from light). After 3 days, the medium was removed with a multichannel pipette and replaced with 100 μl of NBT solution (1 mg/ml in PBS with 200 nM phorbol myristate acetate (PMA). Following an additional hour incubation at 37° C. the NBT solution was removed and 100 μl of 10% SDS in 0.01 N HCl was added. The amount of the reduced NBT was quantified photometrically at 540 nm using an automated plate reader. The mean of 3 wells was calculated. S.E.M. were between 5 and 10%.

The target in another assay is T1, RXRα (Homo sapiens, UniProt P19793).
T1 sequence (P19793 1-462): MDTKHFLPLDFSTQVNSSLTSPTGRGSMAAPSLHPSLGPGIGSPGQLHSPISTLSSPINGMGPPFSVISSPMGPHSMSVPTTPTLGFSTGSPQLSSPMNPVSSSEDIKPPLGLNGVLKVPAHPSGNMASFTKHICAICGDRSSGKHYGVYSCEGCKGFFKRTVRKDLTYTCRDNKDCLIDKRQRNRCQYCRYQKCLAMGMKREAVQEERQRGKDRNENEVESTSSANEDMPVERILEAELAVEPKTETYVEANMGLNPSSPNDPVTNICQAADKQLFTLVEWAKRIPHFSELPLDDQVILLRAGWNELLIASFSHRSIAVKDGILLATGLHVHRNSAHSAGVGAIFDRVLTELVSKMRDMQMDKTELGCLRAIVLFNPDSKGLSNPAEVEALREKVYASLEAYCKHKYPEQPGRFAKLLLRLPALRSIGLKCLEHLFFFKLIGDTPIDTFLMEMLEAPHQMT
The experiment in a line: RXRα activation (transactivation). The conditions noted are these: Table 1; read-out: Activation ED50, RXRα. The assay is classed as cell-based. An excerpt: Methods essentially as described in those publications were used to determine the binding and transactivation properties of retinoids reported in the Examples herein.

As usually defined, the inhibition is the percentage by which the read-out fell short of the control.

Take `CC1=C(/C=C/C(C)=C\C=C\C(C)=C\C(=O)O)C(C)(C)CCC1` [9-cis-retinoic acid, reference compound]: the “binding to RAR (in words)” value in assay [1] was “also acts as a ligand for the RAR group of receptors”. Besides, the “Utricle Size” value was 8650 ± 427 μm^2 / utricle in the assay with Rhino mouse utricles (0.1 μg/day), 6926 ± 497 μm^2 / utricle with Rhino mouse utricles (1 μg/day), 3540 ± 354 μm^2 / utricle in the assay with Rhino mouse utricles (10 μg/day) and 2644 ± 312 μm^2 / utricle with Rhino mouse utricles (100 μg/day). Besides, the “Utricle size % Change from Control” value in the assay on Rhino mouse utricles (0.1 μg/day) is recorded as -11%; in the assay on Rhino mouse utricles (1 μg/day) it was -29%; with Rhino mouse utricles (10 μg/day), -64%; in the assay on Rhino mouse utricles (100 μg/day) it was -73%. For the same compound, the “binding to RXR (in words)” value in assay [2] is listed as “binds to a group of receptors known as the retinoic acid X receptors”. Besides, the IC50 with human sebaceous cells is 100 nM.

As to `CC1=C(/C=C/C(C)=C/C=C/C(C)=C/C(=O)O)C(C)(C)CCC1` [All-trans retinoic acid, all-trans retinoic acid, reference compound], the “binding to RAR (in words)” value in assay [1] was “bind to RARα”. In assay [2], the “binding to RXR (in words)” value was “do not”. For the same compound, the inhibition at 0.01 µM in the assay on mouse B cell (Mus musculus, B-cell, 96 h, day 4, 10 nM, read-out: inhibition of B cell response) is around 30%. Also, in the assay with mouse B cell (alone, FIG. 4, day 3), the IC50 was found to be 1 nM. Besides, the “effect on B cell response” value in the assay with mouse B cell (day 4, 1 nM) is “not inhibitory any longer and actually induces a minor enhancement of the response”.

Consider `CC1(C)CCC(C)(C)c2cc(C(=O)Nc3ccc(C(=O)O)cc3)ccc21` [Compound A, reference compound], for which the “potentiation of HL-60 differentiation (in words)” value in the assay with HL-60 cells is “somewhat more pronounced”. On RXRα, the EC50 is above 10000 nM.

Consider `CC1=C(/C=C/C(C)=C(Br)\C=C\C(C)=C\C(=O)O)C(C)(C)CCC1` [Example 2, (All-E)-6-Bromo-3,7-dimethyl-9-(2,6,6-trimethyl-1-cyclohexen-1-yl)-2,4,6,8-nonatetraenoic acid], for which the “Utricle Size” value with Rhino mouse utricles (0.1 μg/day) worked out at 9535 ± 890 μm^2 / utricle; in the assay on Rhino mouse utricles (1 μg/day), 9616 ± 1134 μm^2 / utricle; with Rhino mouse utricles (10 μg/day), 9049 ± 891 μm^2 / utricle; with Rhino mouse utricles (100 μg/day), 5437 ± 615 μm^2 / utricle. In addition, the “Utricle size % Change from Control” value is listed as -2% with Rhino mouse utricles (0.1 μg/day), -1% in the assay with Rhino mouse utricles (1 μg/day), -7% in the assay on Rhino mouse utricles (10 μg/day) and -44% with Rhino mouse utricles (100 μg/day). In addition, the inhibition at 1 µM with human sebaceous cells (1000 nM, first experiment, read-out: inhibition of sebaceous cell growth) is 70%.

For the compound `CC1=C(/C=C/C(C)=C(Cl)\C=C\C(C)=C\C(=O)O)C(C)(C)CCC1` [Example 12, (All-E-)-6-chloro-3,7-dimethyl-9-(2,6,6-trimethyl-1-cyclohexen-1-yl)-2,4,6,8-nonatetraenoic acid], the “Utricle Size” value with Rhino mouse utricles (0.1 μg/day) is reported as 9104 ± 829 μm^2 / utricle; in the assay on Rhino mouse utricles (1 μg/day) it was 9156 ± 938 μm^2 / utricle; in the assay on Rhino mouse utricles (10 μg/day), 7634 ± 485 μm^2 / utricle; in the assay on Rhino mouse utricles (100 μg/day), 3596 ± 300 μm^2 / utricle. Also, the “Utricle size % Change from Control” value in the assay with Rhino mouse utricles (0.1 μg/day) was -7%; in the assay with Rhino mouse utricles (1 μg/day) it was -6%; in the assay on Rhino mouse utricles (10 μg/day), -22%; in the assay on Rhino mouse utricles (100 μg/day), -63%. In the assay with human sebaceous cells, the IC50 is 100 nM.
